Reference: patent publication US8182815B2, “Fibroblast growth factor receptor-3 (FGFR-3) inhibitors and methods of treatment” (ImClone, LLC, priority 2008, dated 2012)

What was measured:
RT4 tumor = experiment: RT4 xenograft, combination with cisplatin; conditions: Antibody 1 40 mg/kg three times weekly, cisplatin MTD
Protocol: (§1) The therapeutic benefit of combining cisplatin with FGFR-3 antibody in three bladder xenograft models is explored. Develop RT112, RT4 and BFTC905 xenograft tumor models by routine methods in which 1-20 million tumor cells mixed with 0-100% Matrigel are injected subcutaneously to each female athymic nude mouse. Start antibody treatment once the mean volume of the subcutaneous tumors is approximately 400 mm^2. […] Measure tumor volumes 3 times weekly until the end of the studies.
Conduct RM ANOVO statistical test.

RT-112 tumor = experiment: RT112 xenograft, combination with cisplatin; conditions: Antibody 1 40 mg/kg three times weekly, cisplatin MTD
Protocol: as §1
Conduct RM ANOVO statistical test.

BFTC-905 tumor = experiment: BFTC905 xenograft, combination with cisplatin; conditions: Antibody 1 40 mg/kg three times weekly, cisplatin MTD
Protocol: as §1
Conduct RM ANOVO statistical test.

[1] = biological target: T1, FGFR-3 (K650E) in OPM-2 cells (Homo sapiens, UniProt P22607, K650E); experiment: FGFR-3 receptor degradation in OPM-2 cells (western blot); assay type: cell-based; conditions: 37° C., Antibody 1 30 ug/ml, FGF-1 30 ng/ml
T1 construct: endogenous in cells; host or cells: OPM-2
T1 sequence (P22607 23-806 K650E): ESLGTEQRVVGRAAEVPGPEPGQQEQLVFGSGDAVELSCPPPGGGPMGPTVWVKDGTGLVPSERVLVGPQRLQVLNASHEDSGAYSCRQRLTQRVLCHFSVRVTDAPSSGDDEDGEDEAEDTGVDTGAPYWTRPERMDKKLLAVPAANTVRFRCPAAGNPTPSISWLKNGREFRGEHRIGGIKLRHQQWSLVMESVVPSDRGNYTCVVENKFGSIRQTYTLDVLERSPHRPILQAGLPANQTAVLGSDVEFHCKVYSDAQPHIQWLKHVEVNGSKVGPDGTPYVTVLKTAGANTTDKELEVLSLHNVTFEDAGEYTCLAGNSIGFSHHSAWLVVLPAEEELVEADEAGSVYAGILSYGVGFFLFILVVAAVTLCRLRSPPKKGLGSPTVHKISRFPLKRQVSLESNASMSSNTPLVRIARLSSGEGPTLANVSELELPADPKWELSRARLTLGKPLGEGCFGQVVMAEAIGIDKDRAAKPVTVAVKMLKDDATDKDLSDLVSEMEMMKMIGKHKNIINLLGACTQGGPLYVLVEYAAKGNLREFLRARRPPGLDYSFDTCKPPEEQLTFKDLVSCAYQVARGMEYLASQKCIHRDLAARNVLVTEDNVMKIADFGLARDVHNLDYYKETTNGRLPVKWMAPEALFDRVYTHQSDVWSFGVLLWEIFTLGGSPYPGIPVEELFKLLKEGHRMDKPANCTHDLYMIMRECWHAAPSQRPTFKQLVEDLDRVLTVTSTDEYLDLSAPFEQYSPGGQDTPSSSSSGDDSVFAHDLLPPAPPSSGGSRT
Protocol: OPM-2 is a cell line originally isolated from cancer cells of multiple myeloma. OPM-2 cells are known to express FGFR-3 receptors harboring a gain-of-function K650E point mutation. Quiesce the OPM-2 cells in low serum culture media (0.1% FBS) for overnight. The next day, divide these cells into 5 groups. Group 1 is lysed immediately, and the lysate is kept at −20° C. until the time of western blot analysis. This group is therefore designated as Time 0 hr sample. Group 2-5 each has 3 samples of equal size, named as Sample A, B and C of Group 2, 3, 4, and 5. Samples A of Group 2-5 are not subjected to any further treatment, but are incubated at 37° C. Samples B of Group 2-5 are treated with 30 ng/ml FGF-1 at 37° C. […] All samples of Group 2 are lysed after 1 hr of treatment, and the lysates are kept at −20° C. until the time of western blot analysis. This group is designated as the Time 1 hr samples. All samples of Group 3 are lysed after 4 hr of treatment, and the lysates are kept at −20° C. until the time of western blot analysis. This group is designated as the Time 4 hr samples. All samples of Group 4 are lysed after 8 hr of treatment, and the lysates are kept at −20° C. until the time of western blot analysis. This group is designated as Time 8 hr samples. All samples of Group 5 are lysed after 24 hr of treatment, and the lysates are kept at −20° C. until the time of western blot analysis. This group is designated as Time 24 hr samples. When all lysates are ready, they are subjected to SDS-PAGE followed by Western Blot experiment. The FGFR-3 signals of Group 1 and all samples of Group 2 are similar. […] In Group 5, the FGFR-3 signal of Sample A is lower than that of group 1; yet signals of Samples B and C are nearly absent.

RT112 cells = experiment: RT112 cell proliferation assay (3H-thymidine incorporation); assay type: cell-based, human; conditions: 1 nM exogenous FGF-1, 48 hours
Protocol: Quiesce monolayer RT112 cells in low serum culture media (0.1% fetal bovine serum, 5 μg/mL heparin) for 24-72 hrs. Divide cells into 4 samples. Add FBS (Fetal Bovine Serum) to Sample 1 to the final concentration of 10% (V:V). Leave Sample 2 in the starving media. Add FGF-1 to Sample 3 to the final concentration of 1 nM. […] Next, add FGF-1 to the final concentration of 1 nM. After preparing Samples 1-4 as described above, incubate the samples in a tissue culture incubator set at 37° C. and with 5% CO2 (v:v) for 48 hours. Detect cell growth using standard ^3H-thymidine incorporation, assays. Tumor cell growth is doubled when RT112 cells […] are stimulated with 1 nM exogenous FGF-1.

How did the “RT4 Tumor Volumes, Average” value (RT4 tumor; Day 1) turn out when N.N.[Cl][Pt][Cl] [Cisplatin, cisplatin, reference compound] was run?
Its value is 195.4 mm^3.

What about the “RT4 Tumor Volumes, Average” value (RT4 tumor; Day 8) of the same molecule?
The value was 253.4 mm^3.

And the “RT4 Tumor Volumes, Average” value (RT4 tumor; Day 15)?
Its value is 374.0 mm^3.

And the “RT4 Tumor Volumes, Average” value (RT4 tumor; Day 22)?
Its value is 511.9 mm^3.

And the “RT4 Tumor Volumes, Average” value (RT4 tumor; Day 29)?
Its value is 675.8 mm^3.

And the “RT4 Tumor Volumes, Average” value (RT4 tumor; Day 36)?
The value was 840.5 mm^3.

What about the “RT4 Tumor Volumes, Average” value (RT4 tumor; Day 42) of the same molecule?
Its value is 1024.5 mm^3.

And the “RT-112 Tumor Volumes, Average” value (RT-112 tumor; Day 1)?
The value was 175.7 mm^3.

And the “RT-112 Tumor Volumes, Average” value (RT-112 tumor; Day 8)?
Its value is 245.1 mm^3.

And the “RT-112 Tumor Volumes, Average” value (RT-112 tumor; Day 15)?
The value was 360.8 mm^3.

And the “RT-112 Tumor Volumes, Average” value (RT-112 tumor; Day 22)?
The value was 578.8 mm^3.

What about the “RT-112 Tumor Volumes, Average” value (RT-112 tumor; Day 29) of the same molecule?
The value was 739.4 mm^3.

And the “RT-112 Tumor Volumes, Average” value (RT-112 tumor; Day 36)?
Its value is 881.6 mm^3.

What about the “RT-112 Tumor Volumes, Average” value (RT-112 tumor; Day 42) of the same molecule?
The value was 1115.9 mm^3.

And the “BFTC-905 Tumor Volumes, Average” value (BFTC-905 tumor; Day 0)?
Its value is 192.1 mm^3.

And the “BFTC-905 Tumor Volumes, Average” value (BFTC-905 tumor; Day 3)?
The value was 211.4 mm^3.

And the “BFTC-905 Tumor Volumes, Average” value (BFTC-905 tumor; Day 7)?
Its value is 243.4 mm^3.

What about the “BFTC-905 Tumor Volumes, Average” value (BFTC-905 tumor; Day 14) of the same molecule?
Its value is 286.7 mm^3.

What about the “BFTC-905 Tumor Volumes, Average” value (BFTC-905 tumor; Day 21) of the same molecule?
Its value is 395.0 mm^3.

And the “BFTC-905 Tumor Volumes, Average” value (BFTC-905 tumor; Day 28)?
Its value is 511.6 mm^3.

What about the “BFTC-905 Tumor Volumes, Average” value (BFTC-905 tumor; Day 35) of the same molecule?
Its value is 615.5 mm^3.

What about the “BFTC-905 Tumor Volumes, Average” value (BFTC-905 tumor; Day 42) of the same molecule?
The value was 829.6 mm^3.

“FGF-1: recombinant human FGF ligand, known to induce FGFR degradation” was tested. Which “FGFR-3 signal compared with Time 0 hr (Group 1)” value ([1]; Time 1 hr) did it give?
The value was “similar”.

What about the “FGFR-3 signal compared with Time 0 hr (Group 1)” value ([1]; Time 4 hr) of the same molecule?
The value was “significantly lower”.

And the “FGFR-3 signal compared with Time 0 hr (Group 1)” value ([1]; Time 8 hr)?
The value was “significantly lower”.

And the “FGFR-3 signal compared with Time 0 hr (Group 1)” value ([1]; Time 24 hr)?
Its value is “nearly absent”.

What about the “tumor cell growth on stimulation” value (RT112 cells) of the same molecule?
Its value is “doubled”.
